Experimental data published in BindingDB's records for doi:10.3109/14756360903389872 (Medical University, 2010).

How the values were obtained:
Assay in all cases: Antiamidolytic Assay
Plasminogen = Plasminogen (Homo sapiens, UniProt P00747)
Experimental: (§1) Quantities of 0.2 mL of examined preparation (as control, 0.15 M NaCl), buffer, and 0.1 mL of enzyme solution were mixed together. The mixture was incubated at 37°C for 3 min then the synthetic substrate solution in the same buffer was added. After 20 min of incubation, the reaction was stopped by adding 0.1 mL of 50% acetic acid, and the absorbance of the released p-nitroaniline was measured at 405 nm.

[1] = molecular target: Urokinase-type plasminogen activator (Homo sapiens, UniProt P00749)
Experimental: as §1

Serine protease 1 = Serine protease 1 (Homo sapiens, UniProt P07477)
Experimental: as §1

Plasminogen, sequence (P00747 97-580 limits assumed): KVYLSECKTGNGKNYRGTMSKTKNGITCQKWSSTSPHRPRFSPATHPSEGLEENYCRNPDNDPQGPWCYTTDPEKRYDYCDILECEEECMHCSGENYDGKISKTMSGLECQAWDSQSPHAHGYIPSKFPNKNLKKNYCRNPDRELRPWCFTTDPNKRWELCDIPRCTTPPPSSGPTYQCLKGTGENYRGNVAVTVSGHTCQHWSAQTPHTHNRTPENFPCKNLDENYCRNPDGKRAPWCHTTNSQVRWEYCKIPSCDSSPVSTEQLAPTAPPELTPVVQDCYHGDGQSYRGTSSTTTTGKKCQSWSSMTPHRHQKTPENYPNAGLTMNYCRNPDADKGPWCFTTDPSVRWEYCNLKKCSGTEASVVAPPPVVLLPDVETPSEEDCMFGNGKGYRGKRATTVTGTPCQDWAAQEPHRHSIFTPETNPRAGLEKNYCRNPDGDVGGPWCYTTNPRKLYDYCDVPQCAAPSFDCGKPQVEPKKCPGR
Plasminogen, sequence (P00747 581-810 limits assumed): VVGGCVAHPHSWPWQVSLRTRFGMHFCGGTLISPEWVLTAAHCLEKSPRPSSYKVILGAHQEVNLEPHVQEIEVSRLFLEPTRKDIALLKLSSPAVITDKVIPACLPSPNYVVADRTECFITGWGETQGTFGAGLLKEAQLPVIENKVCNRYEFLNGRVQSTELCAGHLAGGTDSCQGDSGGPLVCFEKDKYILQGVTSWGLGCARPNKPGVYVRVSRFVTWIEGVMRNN
Serine protease 1, sequence (P07477 whole entry): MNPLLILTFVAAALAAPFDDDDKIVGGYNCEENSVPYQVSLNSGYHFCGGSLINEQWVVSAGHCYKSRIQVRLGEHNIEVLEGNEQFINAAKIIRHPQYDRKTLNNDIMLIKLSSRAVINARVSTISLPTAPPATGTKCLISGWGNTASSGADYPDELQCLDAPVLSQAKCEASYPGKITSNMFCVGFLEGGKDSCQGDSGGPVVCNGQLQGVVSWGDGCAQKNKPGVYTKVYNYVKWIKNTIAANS

IC50 (Plasminogen)	Structure (SMILES)	IC50 [1]	IC50 (Serine protease 1)
10 µM	Nc1cccc(C(=O)Nc2cccc(C(=O)NCCCCCNC(=O)c3cccc(NC(=O)c4cccc(N)c4)c3)c2)c1 [Carbocyclic minor groove binder, 6]	14 µM	20 µM
20 µM	Nc1cccc(C(=O)Nc2cccc(C(=O)NCCCCNC(=O)c3cccc(NC(=O)c4cccc(N)c4)c3)c2)c1 [Carbocyclic minor groove binder, 5]	10 µM	

The next lines start with the molecule.

Structure (SMILES)	IC50 (Plasminogen)	IC50 [1]	IC50 (Serine protease 1)
Nc1cccc(C(=O)Nc2cccc(C(=O)NCCCNC(=O)c3cccc(NC(=O)c4cccc(N)c4)c3)c2)c1 [Carbocyclic minor groove binder, 4]	20 µM		
Cn1cc(NC(=O)c2cc(NC(=O)CN=C(N)N)cn2C)cc1C(=O)NCCC(=N)N	40 µM	30 µM	
N=C(N)c1ccc(OCCCCCOc2ccc(C(=N)N)cc2)cc1 [4-[5-(4-carbamimidoylphenoxy)pentoxy]benzenecarboximidamide;2-oxidanylethanesulfonic acid]	< 10 µM	20 µM	100 µM
